The values that follow come from patent US10617689B2, “Compositions, methods and uses for the treatment of diabetes and related conditions by controlling blood glucose level” (PHARNEXT, priority 2013, dated 2020).

Data set [1] has as its system TNF-α induced insulin resistant 3T3-L1 adipocytes. Description: Glucose uptake in TNFα induced insulin resistant 3T3-L1 differentiated adipocytes. Type of data set: cell-based. The conditions noted are these: for glucose uptake (in words): not shown. The protocol:
3T3L1 fibroblasts were maintained in DMEM 4.5 g/L glucose supplemented with 5% calf serum donor, 5% new born calf serum, 100 U/mL penicillin, and 100 μg/mL streptomycin at 37° C. under a 10% CO2 atmosphere. Cells were grown on 24 well plates at a density of 2560 cells/well in 0.5 mL of growth medium (DMEM 4.5 g/L glucose supplemented with 10% FCS, 100 U/mL penicillin, and 100 μg/mL streptomycin). […] Fresh medium were replaced after two days.
Glucose uptake was measured by quantification of incorporated radiolabelled glucose, after an incubation step with 2-deoxy-D[1,2^3H] glucose for 5 min. Glucose uptake was arrested by two washing steps in ice-cold PBS 1×. Then were solubilized in 0.1N NaOH for 30 min. Cell associated radioactivity have been then counted by using a MicroBeta counter after adding 600 μL per well of scintillant (Optiphase SuperMix3).
In parallel, protein quantification was determined by a colorimetric assay derived from LOWRY method. Results are expressed in nmol of glucose incorporated/5 min/mg of protein and in % of control or basal condition (100%).

Data set [2] in a line: Results synthesis: relative performance value over all in vitro models. To be noted: results of all in vitro models normalized and weighed; single drugs. An excerpt:
Table 4 gathers results that were obtained in all previously described models (see points from 1.1 to 1.5 above). A value is attributed to each candidate compound depending on its effect in the different in vitro models compared to vehicle. Results are normalized and weighed in order to generate a relative performance value for each candidate compound. A high value reflects a high potential of the compound for the normalization of glucose level and thus a significant efficacy for controlling glucose levels and/or for the treatment of diabetes or related disorders. […]

Data set [3] concerns beta pancreatic INS-1 cells. The experiment in a line: Prevention of beta cells apoptosis. It is filed as cell-based. To be noted: 1 h pre-incubation then 24 h in apoptotic condition, drugs tested alone. The protocol: Drugs of the invention have been tested for their efficiency in protecting beta cells from apoptosis. Such activity could be considered of use in type 1 diabetes as well as in type 2 diabetes.
The beta pancreatic INS-1 cells have been selected for this study. The cells are cultured in complete medium, RPMI 1640 10 mM glucose supplemented with 1 mM sodium pyruvate, 50 μM 2-mercaptoethanol, 2 mM glutamine, 10 mM HEPES, 100 IU/mL penicillin, 100 μg/mL streptomycin and 10% heat-inactivated foetal calf serum (FCS), as described by Asfari et al. (23). INS-1 cells are plated (4.5×10^4 cells/well) in 96-well poly ornithine coated plates and cultured at 37° C. in a humidified atmosphere of 95% air/5% CO2. The day after, cells are pre-incubated with the tested molecules for 1 h. Then, after a medium change, cells are cultured for 24 h in a medium containing the tested molecules and glucose 30 mM, myristic acid 0.05 mM, INF 25 ng/mL, TNF 25 ng/mL and IL 5 ng/mL.
The efficacy of compounds to prevent apoptosis is then evaluated by the highly specific apoptosis detection kit from Chemicon (Ref. APT225). This procedure is based on the detection of single-stranded DNA (ssDNA) which is a specific marker of apoptotic cells (24).
Results are expressed in optical density (OD) arbitrary unit and % of reduction of the apoptosis induced by apoptotic condition. […]

The subject of data set [4] is Mouse muscle cells H-2 Kb. The experiment in a line: Glucose uptake in mouse muscle cells. Type of data set: cell-based. To be noted: H-2 Kb cells; short term; 0.1 μM; vs non-treated cells. The protocol:
For differentiation in myoblast, cells are switched to non-permissive culture conditions (37° C. in a humidified atmosphere of 95% air/5% CO2; DMEM 5.5 mM D-glucose supplemented with 2% FCS, 10% horse serum, 2% glutamine, 1% chicken embryo extract, 100 U/mL penicillin, and 100 μg/mL streptomycin).
For long term effect evaluation, the day before glucose uptake assay, cells are incubated in DMEM 5.5 mM D-glucose supplemented with 10% horse serum, 2% SVF, 1% chicken embryo extract, 2% glutamine in the presence of the tested molecules for 16 h. […]
For short term effect evaluation, 4 hours prior to the glucose test, cells are washed and incubated in a serum-free medium (DMEM) containing 5.5 mM D-glucose and the tested molecules. Then glucose uptake is measured by incubation of the cells for 5-10 min with radiolabelled 2-deoxy-D-[1,2 ^3H] glucose in Krebs-Ringer HEPES buffer (KRBH; pH 7.4) 0.1% Bovine Serum Albumine (BSA) fraction V (Sigma_A-4503). […] Cell associated radioactivity is then counted and protein quantification is determined using the colorimetric Lowry method. Glucose uptake is estimated by measuring the radioactivity incorporated to the cells by a MicroBeta counter after adding 600 μL per well of scintillant (Optiphase SuperMix3).
Protein quantification is performed by a colorimetric assay derived from Lowry method. […]

The conditions of data set [5]: mainly from Martindale (Edition 2011) and Nathan et al. (2009); cited from earlier work.
For data set [6], the system named is human primary myotubes derived from a diabetic patient. Description: Glucose uptake in human diabetic myotubes primary cultures. It is filed as cell-based. The conditions noted are these: for enhancement of glucose uptake: pre-treatment. The protocol: In order to have a model that is most reflective of the diabetic pathological conditions, efficiency of drugs in enhancing glucose uptake in diabetic myotubes was tested. […] The myotubes from a diabetic patient were grown on HAM's F10-based media (Sigma, ref […]) supplemented with 15% of fetal bovine serum, 1 mM glutamine. Myoblast were seeded at 380,000 cells/well in 12-well plates. After 2 days of proliferation, the cells were placed in reduced serum conditions (2% horse serum) to induce differentiation. The myotubes were used after 5 days of differentiation. Dulbecco's modified Eagle's medium (DMEM)-based media (Gibco, ref 31053-028) supplemented with 2% heat-inactivated Horse serum, 2% Glutamax (Gibco, 35050) and washed for glucose uptake assays. Compounds were dissolved in DMSO to reach desired final concentration prior use. The differentiated myotubes were treated for 24 h with the compositions of the invention, before the assay. Before the initiation of glucose uptake, the cells were deprived of serum and glucose. […] After adding the compounds at the desired concentrations, the cells were incubated at 37° C. during 2 h30. […] A subsequent glucose and serum deprivation was performed in FIBS buffer at 37° C. for 2 hours. […] The cells were rinsed twice with 1 mL of cold PBS. The lysis was performed in 500 μL of 0.05N NaOH for 20 minutes. The cells lysates were transferred into scintillation vials for the measurement of radioactivity with a MicroBeta counter.

Consider `NCC(CC(=O)O)c1ccc(Cl)cc1` (racemic) [baclofen], for which the “glucose uptake, drug used alone (in words)” value in data set [1] (alone at 3.3 nM) is “No significant effect”. In data set [2], this compound displayed a Relative performance value of 16.
`O=C[C@@H](O)[C@@H](O)[C@H](O)[C@H](O)CO` [D-mannose]: the Relative performance value in data set [2] worked out at 18.
Consider `CC(=O)NCCCS(=O)(=O)O` [acamprosate], for which the “Percentage of apoptosis reduction” value in data set [3] came out at 49%. The “enhancement of glucose uptake” value in data set [4] is reported as “+45%”. The compound also returned a Relative performance value in data set [2] of 15.
As for `C=CCNc1nc(NCC=C)nc(N2CCN(C(c3ccc(F)cc3)c3ccc(F)cc3)CC2)n1` [almitrine], the Relative performance value in data set [2] is 38.
Still for that read-out and setting: the result for `CN1CCCC(n2nc(Cc3ccc(Cl)cc3)c3ccccc3c2=O)CC1` (centres unmarked) [azelastine] reads 30; that for `CCN(CC)CCOCCOC(=O)C1(c2ccccc2)CCCC1` [carbetapentane], 33.
As for `CN/C(=N/CCSCc1nc[nH]c1C)NC#N` [cimetidine], the Relative performance value in data set [2] was found to be 31.
With `C[C@@H](NCCCc1cccc(C(F)(F)F)c1)c1cccc2ccccc12` [cinacalcet], the Relative performance value in data set [2] is 32.
Still for that read-out and setting: the result for `CN(C)CC[C@@H](c1ccc(Br)cc1)c1ccccn1` [dexbrompheniramine] reads 21.
`CCN[C@@H](C)Cc1cccc(C(F)(F)F)c1` [dexfenfluramine]: the “Side Effects” value in data set [5] is given as “Cardiovascular”.
In data set [2], `CCN(CC)C(=O)N1CCN(C)CC1` [diethylcarbamazine] displayed a Relative performance value of 32.
For the compound `Cn1c(=O)c2c(ncn2CC(O)CO)n(C)c1=O` (centres unmarked) [diprophylline], in data set [2], the Relative performance value is reported as 11.
As to `O=C1NCC2(CCN(CCc3ccccc3)CC2)O1` [fenspiride], the “enhancement of glucose uptake” value in data set [6] (0.01 μM) is “+34%”; in data set [6] (0.1 μM), “+30%”; in data set [6] (1 μM) it was “+27%”. In addition, the “glucose uptake (in words)” value in data set [1] (0.37 nM and 3.3 nM) is “improvement”.
For the compound `COC1=C(OC)C(=O)C(CCCCCCCCCCO)=C(C)C1=O` [idebenone], the Relative performance value in data set [2] was found to be 53.
Take `CC(C(O)c1ccc(O)cc1)N1CCC(Cc2ccccc2)CC1` (centres unmarked) [ifenprodil]: the “glucose uptake (in words)” value is “improvement” in data set [6] (0.1 μM and 1 μM); “improvement” in data set [1] (10 nM and 100 nM). The “enhancement of glucose uptake” value in data set [6] (0.01 μM) is recorded as “+48%”. In data set [2], this compound returned a Relative performance value of 28.
Compound `C[C@@H]1CC(=O)NN=C1c1ccc(NN=C(C#N)C#N)cc1` [levosimendan] came in with a Relative performance value in data set [2] of 20.
Turning to `CN(C)C(=N)N=C(N)N` [metformin], the “glucose uptake, drug used alone (in words)” value in data set [1] (metformin alone at 250 μM) was “No significant effect”.
In data set [2], `Cc1cccc(C)c1OCC(C)N` (centres unmarked) [mexiletine] showed a Relative performance value of 10.
In data set [2], `CO[C@]12C[C@@H](COC(=O)c3cncc(Br)c3)CN(C)[C@@H]1Cc1cn(C)c3cccc2c13` [nicergoline] registered a Relative performance value of 40.
As for `c1cnc(N2CCN(Cc3ccc4c(c3)OCO4)CC2)nc1` [piribedil], the Relative performance value in data set [2] stood at 24.
Regarding `C1COC(NC(C2CC2)C2CC2)=N1` [rilmenidine], the Relative performance value in data set [2] was 16.
For the compound `Cc1c(Cl)cccc1Nc1ccccc1C(=O)O` [tolfenamic acid], the “enhancement of glucose uptake” value is “+13%” in data set [6] (0.01 μM), “+13%” in data set [6] (0.1 μM) and “+12%” in data set [6] (1 μM). In addition, the “glucose uptake (in words)” value in data set [1] (100 nM and 1 μM) is on record as “improvement”. The “glucose uptake, drug used alone (in words)” value in data set [1] (alone at 3.3 nM) was “No significant effect”. This compound also gave a Relative performance value in data set [2] of 9.
The compound `Cc1ccc(C(=O)C(C)CN2CCCCC2)cc1` (centres unmarked) [tolperisone] showed a Relative performance value in data set [2] of 19.
`Cc1cccc(Nc2ccncc2S(=O)(=O)NC(=O)NC(C)C)c1` [torasemide]: the “enhancement of glucose uptake” value in data set [6] (0.01 μM) was “+24%”; in data set [6] (1 μM), “+14%”. Further, the “glucose uptake, drug used alone (in words)” value in data set [1] (alone at 10 nM) is reported as “No significant effect”. This compound also had a Relative performance value in data set [2] of 16.
Take `Nc1nc(N)c2nc(-c3ccccc3)c(N)nc2n1` [triamterene]: in data set [6] (0.01 μM), the “enhancement of glucose uptake” value is on record as “+13%”. Also, the “glucose uptake, drug used alone (in words)” value in data set [1] (alone at 3.3 nM) was “No significant effect”. This compound also yielded a Relative performance value in data set [2] of 18.
